Tests used:
riboswitch 15D10 [1] = test: Luciferase reporter with 15D10 riboswitch (Luci-15D10) in HEK 293 cells; assay type: cell-based, human; settings: Homo sapiens, HEK293, 24 h, 50 μM; HEK 293 cells; Table 3; read-out: Fold increase in riboswitch 15D10-regulated luciferase expression, HEK
Summary of the method: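 Cells transfected with riboswitch-luciferase plasmid; 4 h later medium replaced with TPP or thiamine analogs (fursultiamine, prosultiamine, bisbentiamine, beclotiamine, sulbutiamine) as inducers.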

riboswitch 15D10 [2] = test: Luciferase reporter with 15D10 riboswitch (Luci-15D10) in AML12 cells; assay type: cell-based, mouse; settings: Mus musculus, AML12, 24 h, 50 μM; AML12 cells; Table 3; read-out: Fold increase in riboswitch 15D10-regulated luciferase expression, AML

| Structure (SMILES) | fold induction at 50 µM (riboswitch 15D10 [1]) | fold induction at 50 µM (riboswitch 15D10 [2]) |
| --- | --- | --- |
| C/C(=C(\CCO)SC(=O)c1c(C)cccc1Oc1ccccc1)N(C=O)Cc1cnc(C)nc1N [Compound M128, (Z)—S-(2-(N-((4-amino-2-methylpyrimidin-5-yl)methyl)formamido)-5-hydroxypent-2-en-3-yl) 2-methyl-6-phenoxybenzothioate] | 0.56 | 7.87 |
| C/C(=C(\CCO)SC(=O)c1c(F)cccc1OCc1ccccc1)N(C=O)Cc1cnc(C)nc1N [Compound M129, (Z)—S-(2-(N-((4-amino-2-methylpyrimidin-5-yl)methyl)formamido)-5-hydroxypent-2-en-3-yl) 2-(benzyloxy)-6-fluorobenzothioate] | 10.9 | 167 |
| C/C(=C(\CCO)SC(=O)c1c(F)cccc1Oc1cccc(Cl)c1)N(C=O)Cc1cnc(C)nc1N [Compound M130, (Z)—S-(2-(N-((4-amino-2-methylpyrimidin-5-yl)methyl)formamido)-5-hydroxypent-2-en-3-yl) 2-(3-chlorophenoxy)-6-fluorobenzothioate] | 110 | 329 |
| C/C(=C(\CCO)SC(=O)c1cc(Cl)ccc1Oc1ccccc1)N(C=O)Cc1cnc(C)nc1N [Compound M131, (Z)—S-(2-(N-((4-amino-2-methylpyrimidin-5-yl)methyl)formamido)-5-hydroxypent-2-en-3-yl) 5-chloro-2-phenoxybenzothioate] | 741 | 509 |
| C/C(=C(\CCO)SC(=O)c1ccc(C)cc1Oc1ccccc1Cl)N(C=O)Cc1cnc(C)nc1N [Compound M133, (Z)—S-(2-(N-((4-amino-2-methylpyrimidin-5-yl)methyl)formamido)-5-hydroxypent-2-en-3-yl) 2-(2-chlorophenoxy)-4-methylbenzothioate] | 100 | 273 |
| C/C(=C(\CCO)SC(=O)c1cc(Cl)ccc1Oc1ccc(F)cc1)N(C=O)Cc1cnc(C)nc1N [Compound M134, (Z)—S-(2-(N-((4-amino-2-methylpyrimidin-5-yl)methyl)formamido)-5-hydroxypent-2-en-3-yl) 5-chloro-2-(4-fluorophenoxy)benzothioate] | 557 | 408 |
| C/C(=C(\CCO)SC(=O)c1ccccc1Oc1cccc(C#N)c1)N(C=O)Cc1cnc(C)nc1N [Compound M135, (Z)—S-(2-(N-((4-amino-2-methylpyrimidin-5-yl)methyl)formamido)-5-hydroxypent-2-en-3-yl) 2-(3-cyanophenoxy)benzothioate] | 87.5 | 44.5 |
| C/C(=C(\CCO)SC(=O)c1ccccc1Oc1ccccc1Cl)N(C=O)Cc1cnc(C)nc1N [Compound M136, (Z)—S-(2-(N-((4-amino-2-methylpyrimidin-5-yl)methyl)formamido)-5-hydroxypent-2-en-3-yl) 2-(2-chlorophenoxy)benzothioate] | 132 | 263 |
| C/C(=C(\CCO)SC(=O)c1ccccc1Oc1ccccc1Br)N(C=O)Cc1cnc(C)nc1N [Compound M137, (Z)—S-(2-(N-((4-amino-2-methylpyrimidin-5-yl)methyl)formamido)-5-hydroxypent-2-en-3-yl) 2-(2-bromophenoxy)benzothioate] | 140 | 288 |
| C/C(=C(\CCO)SC(=O)c1ccccc1Oc1c(Cl)cccc1Cl)N(C=O)Cc1cnc(C)nc1N [Compound M138, (Z)—S-(2-(N-((4-amino-2-methylpyrimidin-5-yl)methyl)formamido)-5-hydroxypent-2-en-3-yl) 2-(2,6-dichlorophenoxy)benzothioate] | 228 | 195 |
| C/C(=C(\CCO)SC(=O)c1ccccc1Oc1cccc(C(C)(C)C)c1)N(C=O)Cc1cnc(C)nc1N [Compound M139, (Z)—S-(2-(N-((4-amino-2-methylpyrimidin-5-yl)methyl)formamido)-5-hydroxypent-2-en-3-yl) 2-(3-(tert-butyl)phenoxy)benzothioate] | 37 | 188 |
| C/C(=C(\CCO)SC(=O)c1ccccc1Oc1ccc2ccccc2c1)N(C=O)Cc1cnc(C)nc1N [Compound M140, (Z)—S-(2-(N-((4-amino-2-methylpyrimidin-5-yl)methyl)formamido)-5-hydroxypent-2-en-3-yl) 2-(naphthalen-2-yloxy)benzothioate] | 175 | 192 |
| C/C(=C(\CCO)SC(=O)c1ccccc1Oc1cccc2cccnc12)N(C=O)Cc1cnc(C)nc1N [Compound M141, (Z)—S-(2-(N-((4-amino-2-methylpyrimidin-5-yl)methyl)formamido)-5-hydroxypent-2-en-3-yl) 2-(quinolin-8-yloxy)benzothioate] | 1.61 | 3.46 |
| C/C(=C(\CCO)SC(=O)c1c(F)cccc1Oc1ccccc1Cl)N(C=O)Cc1cnc(C)nc1N [Compound M142, (Z)—S-(2-(N-((4-amino-2-methylpyrimidin-5-yl)methyl)formamido)-5-hydroxypent-2-en-3-yl) 2-(2-chlorophenoxy)-6-fluorobenzothioate] | 85.3 | 184 |
| CCOc1ccc(C(=O)S/C(CCO)=C(/C)N(C=O)Cc2cnc(C)nc2N)c(Oc2cccc(F)c2)c1 [Compound M143, (Z)—S-(2-(N-((4-amino-2-methylpyrimidin-5-yl)methyl)formamido)-5-hydroxypent-2-en-3-yl) 4-ethoxy-2-(3-fluorophenoxy)benzothioate] | 138 | 300 |
| C/C(=C(\CCO)SC(=O)c1ccc(C(C)(C)C)cc1Oc1ccccc1)N(C=O)Cc1cnc(C)nc1N [Compound M145, (Z)—S-(2-(N-((4-amino-2-methylpyrimidin-5-yl)methyl)formamido)-5-hydroxypent-2-en-3-yl) 4-(tert-butyl)-2-phenoxybenzothioate] | 156 | 60.6 |
| C/C(=C(\CCO)SC(=O)c1ccccc1Oc1ccc(C(F)(F)F)nc1)N(C=O)Cc1cnc(C)nc1N [Compound M146, (Z)—S-(2-(N-((4-amino-2-methylpyrimidin-5-yl)methyl)formamido)-5-hydroxypent-2-en-3-yl) 2-((6-(trifluoromethyl)pyridin-3-yl)oxy)benzothioate] | 53.3 | 96.6 |
| C/C(=C(\CCO)SC(=O)c1ccccc1Oc1ccc2c(c1)OCCO2)N(C=O)Cc1cnc(C)nc1N [Compound M147, (Z)—S-(2-(N-((4-amino-2-methylpyrimidin-5-yl)methyl)formamido)-5-hydroxypent-2-en-3-yl) 2-((2,3-dihydrobenzo[b][1,4]dioxin-6-yl)oxy)benzothioate] | 193 | 267 |
| C/C(=C(\CCO)SC(=O)c1cccc2c1oc1ccccc12)N(C=O)Cc1cnc(C)nc1N [Compound M148, (Z)—S-(2-(N-((4-amino-2-methylpyrimidin-5-yl)methyl)formamido)-5-hydroxypent-2-en-3-yl) dibenzo[b,d]furan-4-carbothioate] | 153 | 288 |
| C/C(=C(\CCO)SC(=O)c1ccc(Oc2ccccc2)cc1Cl)N(C=O)Cc1cnc(C)nc1N [Compound M149, (Z)—S-(2-(N-((4-amino-2-methylpyrimidin-5-yl)methyl)formamido)-5-hydroxypent-2-en-3-yl) 2-chloro-4-phenoxybenzothioate] | 176 | 383 |
| C/C(=C(\CCO)SC(=O)c1c(C)cc(Oc2ccccc2)cc1F)N(C=O)Cc1cnc(C)nc1N [Compound M150, (Z)—S-(2-(N-((4-amino-2-methylpyrimidin-5-yl)methyl)formamido)-5-hydroxypent-2-en-3-yl) 2-fluoro-6-methyl-4-phenoxybenzothioate] | 12.3 | 12 |
| C/C(=C(\CCO)SC(=O)c1ccc(Oc2cccc(Cl)c2)cc1C)N(C=O)Cc1cnc(C)nc1N [Compound M151, (Z)—S-(2-(N-((4-amino-2-methylpyrimidin-5-yl)methyl)formamido)-5-hydroxypent-2-en-3-yl) 4-(3-chlorophenoxy)-2-methylbenzothioate] | 20.5 | 231 |
| C/C(=C(\CCO)SC(=O)c1ccc(Oc2ccccc2)cc1Oc1ccccc1)N(C=O)Cc1cnc(C)nc1N [Compound M152, (Z)—S-(2-(N-((4-amino-2-methylpyrimidin-5-yl)methyl)formamido)-5-hydroxypent-2-en-3-yl) 2,4-diphenoxybenzothioate] | 68.9 | 36.6 |
| C/C(=C(\CCO)SC(=O)c1ccccc1Sc1ccccc1)N(C=O)Cc1cnc(C)nc1N [Compound M153, (Z)—S-(2-(N-((4-amino-2-methylpyrimidin-5-yl)methyl)formamido)-5-hydroxypent-2-en-3-yl) 2-(phenylthio)benzothioate] | 442 | 535 |
| C/C(=C(\CCO)SC(=O)c1ccccc1Oc1ccc(N2CCCC2=O)cc1)N(C=O)Cc1cnc(C)nc1N [Compound M155, (Z)—S-(2-(N-((4-amino-2-methylpyrimidin-5-yl)methyl)formamido)-5-hydroxypent-2-en-3-yl) 2-(4-(2-oxopyrrolidin-1-yl)phenoxy)benzothioate] | 7.71 | 117 |
| C/C(=C(\CCO)SC(=O)c1ccc(C(C)(C)C)cc1Oc1cccc(C(C)(C)C)c1)N(C=O)Cc1cnc(C)nc1N [Compound M156, (Z)—S-(2-(N-((4-amino-2-methylpyrimidin-5-yl)methyl)formamido)-5-hydroxypent-2-en-3-yl) 4-(tert-butyl)-2-(3-(tert-butyl)phenoxy)benzothioate] | 0.06 | 10.1 |

— US12570988B2, “Aptamers that bind thiamine analogs and derivatives” (MeiraGTx Gene Regulation Limited, priority 2020, dated 2026)
